Results published in patent US9668481B2, “Triazole derivatives” (priority 2013, dated 2017).
Where two headings read alike, the source gives them in different places. Marks after values point to notes of the source that are not given here.

Experiments:
physchem = details: pH 2.7
Uromyces appendiculatus = assay: In vivo preventive test on Uromyces appendiculatus (bean rust); details: bean plants, preventive spray, evaluated 11 days after inoculation
Procedure: (§1) The young plants of bean are treated by spraying the active ingredient prepared as described above. Control plants are treated only with an aqueous solution of acetone/Dimethyl sulfoxide/Tween®. After 24 hours, the plants are contaminated by spraying the leaves with an aqueous suspension of Uromyces appendiculatus spores.

[1] = tested on: Blumeria graminis fsp. hordei; assay: Blumeria test (barley)/preventive; assay type: in vivo; details: 500 ppm of active ingredient, preventive, evaluated 7 days after inoculation
Procedure: (§2) Solvent: 49 parts by weight of N,N-dimethylacetamide Emulsifier: 1 part by weight of alkylaryl polyglycol ether To produce a suitable preparation of active compound, 1 part by weight of active compound or active compound combination is mixed with the stated amounts of solvent and emulsifier, and the concentrate is diluted with water to the desired concentration. To test for preventive activity, young plants are sprayed with the preparation of active compound or active compound combination at the stated rate of application. After the spray coating has been dried, the plants are dusted with spores of Blumeria graminis fsp. hordei. The plants are placed in the greenhouse at a temperature of approximately 18° C. and a relative atmospheric humidity of approximately 80% to promote the development of mildew pustules.

Pyricularia oryzae [2] = assay type: in vivo; details: 500 ppm of active ingredient; rice, preventive; evaluated 8 days after inoculation
Septoria tritici = assay: In vivo preventive test on Septoria tritici (leaf spot on wheat); details: wheat plants, preventive spray, evaluated 24 days after inoculation
Procedure: as §1, with “wheat” for “bean”, “Septoria tritici” for “Uromyces appendiculatus”

Fusarium culmorum = assay: Fusarium culmorum-test (wheat)/preventive; assay type: in vivo; details: 500 ppm of active ingredient, preventive, evaluated 5 days after inoculation
Procedure: Solvent: 49 parts by weight of N,N-dimethylacetamide
Emulsifier: 1 part by weight of alkylaryl polyglycol ether
To produce a suitable preparation of active compound, 1 part by weight of active compound or active compound combination is mixed with the stated amounts of solvent and emulsifier, and the concentrate is diluted with water to the desired concentration.
To test for preventive activity, young plants are sprayed with the preparation of active compound or active compound combination at the stated rate of application. After the spray coating has been dried, the plants are slightly injured by using a sandblast and afterwards they are sprayed with a conidia suspension of Fusarium culmorum.
The plants are placed in the greenhouse under a translucent incubation cabinet at a temperature of approximately 22° C. and a relative atmospheric humidity of approximately 100%.
The test is evaluated 5 days after the inoculation. 0% means an efficacy which corresponds to that of the untreated control, while an efficacy of 100% means that no disease is observed.

[3] = tested on: Fusarium nivale (var. majus); assay: Fusarium nivale (var. majus)-test (wheat)/preventive; assay type: in vivo; details: 500 ppm of active ingredient, preventive, evaluated 5 days after inoculation
Procedure: as §2, with “slightly injured by using a sandblast and afterwards they are sprayed” for “dusted”, “a conidia suspension” for “spores”, “Fusarium nivale (var. majus).” for “Blumeria graminis fsp. hordei. The plants are placed in the greenhouse at a temperature of approximately 18° C. and a relative atmospheric humidity of approximately 80% to promote the development of mildew pustules.”

Puccinia recondita = assay: In vivo preventive test on Puccinia recondita (brown rust on wheat); details: wheat plants, preventive spray, evaluated 11 days after inoculation
Procedure: as §1, with “wheat” for “bean”, “Puccinia recondita” for “Uromyces appendiculatus”

Leptosphaeria nodorum = Leptosphaeria nodorum test (wheat)/preventive; assay type: in vivo; details: 500 ppm of active ingredient, preventive, evaluated 8 days after inoculation
Procedure: as §2, with “sprayed” for “dusted”, “a spore suspension” for “spores”, “Leptosphaeria nodorum. […]” for “Blumeria graminis fsp. hordei.”, “22°” for “18°”, “80%.” for “80% to promote the development of mildew pustules.”

Fusarium graminearum = assay type: in vivo; details: 500 ppm of active ingredient; barley, preventive; evaluated 5 days after inoculation
Botrytis cinerea = assay: In vivo preventive test on Botrytis cinerea (grey mould); details: gherkin plants, preventive spray, evaluated 4 to 5 days after inoculation
Procedure: as §1, with “gherkin” for “bean”, “Botrytis cinerea” for “Uromyces appendiculatus”, “spores. The contaminated gherkin plants are incubated for 4 to 5 days at 17° C. and at 90% relative humidity.” for “spores.”

Sphaerotheca fuliginea = assay: In vivo preventive test on Sphaerotheca fuliginea (powdery mildew on cucurbits); details: gherkin plants, preventive spray, evaluated 15 days after inoculation
Procedure: as §1, with “gherkin” for “bean”, “Sphaerotheca fuliginea” for “Uromyces appendiculatus”

Venturia inaequalis = assay: Venturia test (apples)/preventive; assay type: in vivo; details: 100 ppm of active ingredient, preventive, evaluated 10 days after inoculation
Procedure: Solvent: 24.5 parts by weight of acetone • 24.5 parts by weight of dimethylacetamide Emulsifier: 1 part by weight of alkylaryl polyglycol ether To produce a suitable preparation of active compound, 1 part by weight of active compound is mixed with the stated amounts of solvent and emulsifier, and the concentrate is diluted with water to the desired concentration. To test for preventive activity, young plants are sprayed with the preparation of active compound at the stated rate of application. […] The plants are then placed in a greenhouse at approximately 21° C. and a relative atmospheric humidity of approximately 90%.

Phakopsora pachyrhizi = assay: Phakopsora test (soybeans)/preventive; assay type: in vivo; details: preventive, evaluated 7 days after inoculation
Pyrenophora teres = assay: In vivo preventive test on Pyrenophora teres (net blotch on barley); details: barley plants, preventive spray, evaluated 14 days after inoculation
Procedure: as §1, with “barley” for “bean”, “Pyrenophora teres” for “Uromyces appendiculatus”

Podosphaera leucotricha = assay: Podosphaera test (apples)/preventive; assay type: in vivo; details: 100 ppm of active ingredient, preventive, evaluated 10 days after inoculation
Procedure: Solvent: 24.5 parts by weight of acetone • 24.5 parts by weight of dimethylacetamide Emulsifier: 1 part by weight of alkylaryl polyglycol ether To produce a suitable preparation of active compound, 1 part by weight of active compound is mixed with the stated amounts of solvent and emulsifier, and the concentrate is diluted with water to the desired concentration. To test for preventive activity, young plants are sprayed with the preparation of active compound at the stated rate of application. After the spray coating has dried on, the plants are inoculated with an aqueous spore suspension of the causal agent of apple mildew (Podosphaera leucotricha). The plants are then placed in a greenhouse at approximately 23° C. and a relative atmospheric humidity of approximately 70%.

Pyricularia oryzae [4] = assay type: in vivo; details: 500 ppm of active ingredient; rice plants, preventive spray; evaluated 6 days after inoculation

| SMILES | Eff. % (Uromyces appendiculatus; 100 ppm of active ingredient) [%] | Eff. % [1] [%] | Eff. % (Pyricularia oryzae [2]) [%] | Eff. % (Septoria tritici; 100 ppm of active ingredient) [%] | Eff. % (Fusarium culmorum) [%] | Eff. % [3] [%] | Eff. % (Puccinia recondita; 100 ppm of active ingredient) [%] | Eff. % (Leptosphaeria nodorum) [%] | Eff. % (Fusarium graminearum) [%] | Eff. % (Botrytis cinerea; 100 ppm of active ingredient) [%] | Eff. % (Sphaerotheca fuliginea; 100 ppm of active ingredient) [%] | LogP (pH 2.7) | Eff. % (Venturia inaequalis) [%] | Eff. % (Phakopsora pachyrhizi; 100 ppm of active ingredient) [%] | Eff. % (Uromyces appendiculatus; 500 ppm of active ingredient) [%] | Eff. % (Septoria tritici; 500 ppm of active ingredient) [%] | Eff. % (Puccinia recondita; 500 ppm of active ingredient) [%] | Eff. % (Pyrenophora teres; 500 ppm of active ingredient) [%] | Eff. % (Botrytis cinerea; 500 ppm of active ingredient) [%] | Eff. % (Sphaerotheca fuliginea; 500 ppm of active ingredient) [%] | other results |
| --- | --- | --- | --- | --- | --- | --- | --- | --- | --- | --- | --- | --- | --- | --- | --- | --- | --- | --- | --- | --- | --- |
| CC(C)(C)C(=O)Cc1cccnc1Cl [Example V-4, 1-(2-chloropyridin-3-yl)-3,3-dimethylbutan-2-one] |  |  |  |  |  |  |  |  |  |  |  |  |  |  |  |  |  |  |  |  | chromatographic logP (physchem): 2.34 |
| CCC(C)(C)C(O)(Cc1ccncc1F)Cn1cncn1 (stereo not shown) [Example I-7] | 100 | 100 | 89 | 81 | 100 | 100 | 81 | 100 | 100 | 97 | 100 |  |  |  |  |  |  |  |  |  | LogP (method [a]: LC-MS at pH 2.7, 0.1% formic acid in water / acetonitrile gradient): 1.73^[a] |
| CC(C)(C)C(O)(Cc1ccncc1F)Cn1cncn1 (stereo not shown) [Example I-6] | 100 | 100 | 94 | 98 | 100 | 100 | 88 | 100 | 100 | 100 | 100 | 1.41^[a] | 96 | 99 |  |  |  |  |  |  |  |
| CC(C)(C)C(O)(Cc1cc(F)ncc1Cl)Cn1cncn1 (stereo not shown) [Example I-29] |  | 100 | 71 |  | 100 | 100 |  | 100 | 100 |  |  | 2.39^[a] |  |  | 100 | 100 | 100 | 93 | 100 | 100 | Eff. % (Phakopsora pachyrhizi; 10 ppm of active ingredient): 78% |
| CC(C)(C)C(O)(Cc1ccncc1Cl)Cn1cncn1 (stereo not shown) [Example I-4, 1-(3-chloropyridin-4-yl)-3,3-dimethyl-2-(1H-1,2,4-triazol-1-ylmethyl)butan-2-ol] | 100 | 100 |  |  | 93 | 100 | 88 | 88 | 92 |  | 100 |  | 94 | 99 |  |  |  |  |  |  | Eff. % (Pyrenophora teres; 100 ppm of active ingredient): 83%; chromatographic logP (physchem; reversed phase HPLC columns): 1.74 |
| OC(Cc1ccncc1Cl)(CC1CC1)Cn1cncn1 (stereo not shown) [Example I-30] |  | 100 |  |  |  | 100 |  | 88 |  |  |  | 1.43^[a] |  |  | 100 | 100 | 94 | 71 |  | 100 |  |
| CC(C)(C)C(O)(Cc1cccnc1Cl)Cn1cncn1 (stereo not shown) [Example I-3] |  | 100 | 75 |  | 100 | 100 |  | 100 | 100 |  |  | 1.94 | 100 | 100 | 100 | 100 | 97 |  | 100 | 100 | Eff. % (Podosphaera leucotricha): 100%; LogP (pH 7.8): 1.90; Eff. % (Pyricularia oryzae [4]): 88% |
| CC(C)(C)C(O)(Cc1ccnc(Cl)c1F)Cn1cncn1 (stereo not shown) [Example I-27] |  | 100 |  |  | 100 | 100 |  | 88 | 100 |  |  | 2.16^[a] |  |  | 100 | 97 | 98 | 97 | 100 | 100 | Eff. % (Phakopsora pachyrhizi; 10 ppm of active ingredient): 75% |
| CC(C)(C)C1(Cc2ccncc2Cl)CO1 (stereo not shown) [XII-5, 4-[(2-tert-butyloxiran-2-yl)methyl]-3-chloropyridine] |  |  |  |  |  |  |  |  |  |  |  |  |  |  |  |  |  |  |  |  | chromatographic logP (physchem): 2.8 |
| CCC(C)(C)C(O)(Cc1ccncc1Cl)Cn1cncn1 (stereo not shown) [Example I-5] | 100 | 100 | 93 | 97 | 100 | 100 | 90 | 100 | 100 | 89 | 100 | 2.13^[a] |  |  |  |  |  |  |  |  | Eff. % (Pyrenophora teres; 100 ppm of active ingredient): 83% |
